Measured values as given in the NIST ThermoML archive (doi:10.1021/je060217u).
Numbers after ± are expanded uncertainties.

Experiments:
[1] = 298.15 K; 101 kPa; Liquid
[2] = xn = mol fraction of the nth substance listed; conditions: 298.15 K, 101 kPa, Liquid

COC(=O)OC [dimethyl carbonate]
Conditions | mass density [kg/m3]
[1] | 1063.19 ± 0.31

CCCO [propan-1-ol] + COC(=O)OC
Conditions | mass density [kg/m3]
[2], x1 = 1 | 799.75 ± 0.57

COC(=O)OC [dimethyl carbonate] + CCCCO
[2]
Conditions | mass density [kg/m3]
x2 = 0 | 1063.19 ± 0.31
x2 = 0.0502 | 1047.97 ± 0.28
x2 = 0.0999 | 1033.24 ± 0.26
x2 = 0.1499 | 1018.51 ± 0.23
x2 = 0.2003 | 1004.53 ± 0.21
x2 = 0.2501 | 990.53 ± 0.22
x2 = 0.2998 | 976.9 ± 0.25
x2 = 0.3499 | 963.39 ± 0.27
x2 = 0.4 | 950.13 ± 0.3
x2 = 0.4501 | 937.02 ± 0.33
x2 = 0.5 | 924.2 ± 0.35
x2 = 0.55 | 911.58 ± 0.37
x2 = 0.6 | 899.07 ± 0.39
x2 = 0.65 | 886.83 ± 0.41
x2 = 0.7 | 874.68 ± 0.43
x2 = 0.7499 | 862.98 ± 0.45
x2 = 0.7999 | 851.07 ± 0.47
x2 = 0.85 | 839.53 ± 0.49
x2 = 0.8999 | 828.11 ± 0.52
x2 = 0.9499 | 817 ± 0.54

CCO [ethanol] + COC(=O)OC
Conditions | mass density [kg/m3]
[2], x1 = 1 | 785.2 ± 0.6

COC(=O)OC [dimethyl carbonate] + CCCO
[2]
Conditions | mass density [kg/m3]
x2 = 0 | 1063.19 ± 0.31
x2 = 0.0501 | 1050.5 ± 0.29
x2 = 0.1002 | 1037.73 ± 0.27
x2 = 0.1498 | 1025.44 ± 0.24
x2 = 0.1999 | 1012.47 ± 0.22
x2 = 0.2502 | 999.85 ± 0.21
x2 = 0.2999 | 987.13 ± 0.23
x2 = 0.3498 | 974.39 ± 0.26
x2 = 0.3998 | 961.45 ± 0.28
x2 = 0.4499 | 948.47 ± 0.31
x2 = 0.5001 | 935.29 ± 0.34
x2 = 0.55 | 922.19 ± 0.35
x2 = 0.6 | 908.92 ± 0.37
x2 = 0.6501 | 895.57 ± 0.4
x2 = 0.7001 | 882.18 ± 0.42
x2 = 0.75 | 868.68 ± 0.44
x2 = 0.8002 | 855.15 ± 0.47
x2 = 0.8501 | 841.36 ± 0.49
x2 = 0.9002 | 827.59 ± 0.52
x2 = 0.9502 | 813.83 ± 0.54

CCCCO [butan-1-ol] + COC(=O)OC
Conditions | mass density [kg/m3]
[2], x1 = 1 | 806.04 ± 0.56

CCCCO [butan-1-ol]
Conditions | mass density [kg/m3]
[1] | 806.04 ± 0.56

COC(=O)OC [dimethyl carbonate] + CCO
[2]
Conditions | mass density [kg/m3]
x2 = 0 | 1063.19 ± 0.31
x2 = 0.0501 | 1052.75 ± 0.29
x2 = 0.1 | 1042.29 ± 0.27
x2 = 0.1501 | 1031.54 ± 0.25
x2 = 0.1998 | 1020.64 ± 0.24
x2 = 0.2498 | 1009.34 ± 0.22
x2 = 0.2998 | 997.73 ± 0.21
x2 = 0.3501 | 985.68 ± 0.24
x2 = 0.4002 | 973.28 ± 0.26
x2 = 0.4499 | 960.59 ± 0.29
x2 = 0.5 | 947.4 ± 0.32
x2 = 0.55 | 933.74 ± 0.34
x2 = 0.6001 | 919.57 ± 0.36
x2 = 0.65 | 905 ± 0.38
x2 = 0.6999 | 889.89 ± 0.41
x2 = 0.7499 | 874.1 ± 0.43
x2 = 0.8001 | 857.71 ± 0.46
x2 = 0.8498 | 840.7 ± 0.49
x2 = 0.8998 | 822.98 ± 0.53
x2 = 0.95 | 804.45 ± 0.56

CCO [ethanol]
Conditions | mass density [kg/m3]
[1] | 785.2 ± 0.6

CCCO [propan-1-ol]
Conditions | mass density [kg/m3]
[1] | 799.75 ± 0.57
